From patent US10793590B2, “Antifungal compounds” (President and Fellow of Harvard College, priority 2016, dated 2020)
Converted amounts (≈) assume the structure as drawn.

Legend:
Candida albicans = experiment: Liquid broth minimum inhibitory concentration; assay type: cell-based; conditions: YPD media, 30° C., OD600 at 14 h, 1% DMSO, read-out: MIC against Candida albicans
Experimental: (§1) Determination of minimum inhibitory concentration: Fresh DMSO solutions of selvarmicin and nystatin were prepared as serial dilutions and dispensed into clear flat-bottom 96-well plates in four replicates. A starting inoculum of the appropriate test strain in media was added to each well to yield a final concentration of 1% DMSO by volume. The plates were incubated at 30° C. with shaking at 200 rpm. Growth was assayed by OD600 readings taken on a M5 plate reader (Molecular Devices). For E. coli, B. subtilis, and M. luteus, the starting inoculum consisted of an overnight culture in LB diluted into LB media at 10 μL/mL and final OD readings were taken at 22 h. For C. albicans and S. cerevisiae, the starting inoculum consisted of an overnight culture in YPD media diluted to an OD600 of 0.05 in YPD media and final OD readings were taken at 14 h. For T. harzianum and A. fumigatus, the starting inoculum consisted of a stock of concentrated conidia diluted into potato dextrose broth at 2 uL/mL and final OD readings were taken at 22 h. Using Prism (GraphPad), the OD data were normalized and fit to a Gompertz function, from which MIC values were extracted.
(§2) Selvamicin's improved solubility, despite its lack of charged carboxylate and ammonium groups, is probably contributed by its second sugar moiety.

B. subtilis = experiment: Liquid broth activity testing against bacteria; assay type: cell-based; conditions: LB media, OD at 22 h
Experimental: as §1, §2

E. coli = experiment: Liquid broth activity testing against bacteria; assay type: cell-based; conditions: LB media, OD at 22 h
Experimental: as §1, §2

M. luteus = experiment: Liquid broth activity testing against bacteria; assay type: cell-based; conditions: LB media, OD at 22 h
Experimental: as §1, §2

Solubility determination = assay type: physicochemical; conditions: HEPES buffer, aqueous buffer, thermodynamic from solid; 5 mM HEPES pH 7.4, 22° C., UV-vis absorbance
Experimental: Solubility determination: Solubility for selvamicin and nystatin was measured with minor modifications from a previously reported protocol. 1 Briefly, in microcentrifuge tubes, 20 μL […] HEPES (pH=7.4) was added to 2.5 mg of selvamicin and of nystatin and the resulting suspensions were vortexed vigorously for 30 min at 22° C. The tubes were centrifuged, the resulting supernatants were diluted in HEPES buffer, and concentrations were determined by UV-vis absorbance (306 nm for nystatin and 335 nm for selvamicin).

[1] = Isothermal calorimetry sterol binding assay; conditions: 150 μM polyene, POPC LUVs with 11 mol % ergosterol, 25° C.
Experimental: Isothermal Calorimetry Sterol Binding Assay:
Large unilamellar vesicle (LUV) preparation: In a glass vial, a 25 mg/mL solution of palmitoyl oleoyl phosphatidylcholine (POPC) in chloroform (0.96 mL, Avanti Polar Lipids) was mixed with a freshly prepared 4 mg/mL solution of the appropriate sterol (ergosterol or cholesterol. Aldrich) in chloroform (0.35 mL). The sterol solution was omitted for preparation of sterol-free POPC LUVs. The resulting solution was evaporated to dryness in vacuo to yield a lipid film, which was placed under high vacuum for at least 5 h. To this film was added 1 mL 5 mM HEPES (pH adjusted to 7.4 with KOH) and the resulting suspension was vortexed for 3 min. This lipid suspension was loaded into a syringe and passed through a 0.1 μM filter (Whatman) 21 times using an Avanti Polar Lipids Mini-Extruder to yield an LUN suspension (32 mM POPC, 11 mol % sterol; assumed no loss during extrusion).
Isothermal calorimetry (ITC) experiments: Solutions of polyene (150 μM selvamicin or nystatin) in 1% DMSO/5 mM HEPES (pH=7.4) were prepared by dilution from a 1.5 mM solution in DMSO. 8 mM POPC LUV suspensions in 1% DMSO/5 mM HEPES (pH=7.4) were prepared by dilution of the above LUV suspensions with HEPES buffer and DMSO. […]

Candida albicans K1 = experiment: Neutropenic mouse disseminated candidiasis model (Example 8); assay type: in vivo; conditions: 80 mg/kg single intraperitoneal dose 2 h after infection, read 8 h after therapy
Experimental: (§3) Selvamicin was tested in the neutropenic mouse disseminated candidiasis model. Briefly, mice were infected with an inoculum of 5.70 log 10 cfu/ml of Candida albicans K1. Two hours after infection, the mice were administered either saline or selvamicin at 80 mg/kg via the intraperitoneal route. Eight hours after therapy, the burden of Candida albicans in mouse kidneys was measured by viable plate counts of organ homogenates.

[2] = Animal toxicity in neutropenic mouse disseminated candidiasis model (Example 8); assay type: in vivo; conditions: 80 mg/kg intraperitoneal, neutropenic mice
Experimental: as §3

C. albicans = experiment: Neutropenic mouse disseminated candidiasis model (Example 9); assay type: in vivo; conditions: 20 mg/kg or 80 mg/kg intraperitoneal
Experimental: (§4) Selvamicin was tested in the neutropenic mouse disseminated candidiasis model. Mice were infected with an inoculum of C. albicans, C. glabrata, and C. auris. After infection, the mice were administered either saline or selvaimicin at 20 mg/kg or 80 mg/kg via an intraperitoneal route. After therapy, the burden of Candida albicans in mouse kidneys was measured by viable plate counts of organ homogenates.

C. auris = experiment: as above; assay type: in vivo; conditions: 20 mg/kg or 80 mg/kg intraperitoneal
Experimental: as §4

C. glabrata = experiment: as above; assay type: in vivo; conditions: 20 mg/kg or 80 mg/kg intraperitoneal
Experimental: as §4

Compound	MIC (Candida albicans) [µM]	Activity against Gram-positive bacteria (B. subtilis) (B. subtilis)	Activity against Gram-negative bacteria (E. coli) (E. coli)	Activity against Gram-positive bacteria (M. luteus) (M. luteus)	solubility at 30 min (Solubility determination) [µM]	Binding to ergosterol-containing vesicles (ITC, heats evolved) [1]	Efficacy: burden of Candida albicans in mouse kidneys (Candida albicans K1)	Animal toxicity [2]	Efficacy in preventing C. albicans growth (kidney burden) (C. albicans)	Efficacy in preventing C. auris growth (kidney burden) (C. auris)	Efficacy in preventing C. glabrata growth (kidney burden) (C. glabrata)
CCC1OC(=O)CC[C@@H](O)[C@H](O)C[C@H](O)C[C@]2(O)C[C@H](O)[C@](C)(O)C(CC(O[C@@H]3O[C@H](C)[C@@H](O)[C@H](O)[C@@H]3O)/C=C/C=C/C=C/C=C/C=C/C(C)C(O[C@H]3C[C@@H](O)[C@@H](OC)[C@H](C)O3)C1C)O2 (stereo partly shown) [Selvamicin]	23 (≈ 21.4 µg/mL)	No activity was detected	No activity was detected	No activity was detected	2300 (≈ 2140 µg/mL)	no evidence for binding	demonstrated efficacy in preventing Candida albicans growth	No animal toxicity was apparent	demonstrated efficacy	demonstrated efficacy	demonstrated efficacy
C[C@@H]1[C@H](O)[C@@H](C)/C=C/C=C/CC/C=C/C=C/C=C/C=C/[C@H](O[C@H]2O[C@H](C)[C@@H](O)[C@H](N)[C@@H]2O)C[C@@H]2O[C@](O)(C[C@@H](O)[C@H](O)CC[C@@H](O)C[C@@H](O)C[C@@H](O)CC(=O)O[C@H]1C)C[C@H](O)[C@H]2C(=O)O [nystatin A1, reference compound]	1 (≈ 0.926 µg/mL)				300 (≈ 278 µg/mL)						
